Consider 18 compounds from PubChem BioAssay (NCI).

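Briefly, cells in 96-well plates were exposed to five compound concentrations for 48 h, and endpoints were estimated by linear interpolation. GI50 is the concentration that inhibits growth by half. TGI denotes the concentration required for complete inhibition of growth.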

Test systems include M19-MEL melanoma; KM20L2 colon; LXFL 529 NSCLC; RXF-631 renal; DMS 273 small cell lung; DMS 114 small cell lung; HOP-18 NSCLC; XF 498 CNS; MDA-N; SN12K1 renal; P388/ADR leukemia; P388 leukemia.
Common to all, as to experiment: NCI tumour cell line growth inhibition, 48 h

Turning to `C#CC[C@]12CC(=O)CC[C@H]1CC1(C2)OCCO1`, the TGI in the test on M19-MEL melanoma, in the test on KM20L2 colon, with LXFL 529 NSCLC, in the test with RXF-631 renal, with DMS 273 small cell lung and with DMS 114 small cell lung was greater than 100 µM each time. Besides, in the test with HOP-18 NSCLC, the TGI is greater than 100 µM.
Regarding `Cc1cc2c(=O)cc(-c3ccncc3)oc2c(C(N)=O)c1C`, the TGI in the test with M19-MEL melanoma, with KM20L2 colon, in the test on LXFL 529 NSCLC, in the test on DMS 273 small cell lung, in the test with HOP-18 NSCLC and in the test on XF 498 CNS was greater than 100 µM in each case.
Turning to `C[C@H](O)CCC(=O)c1ccoc1`, the TGI with M19-MEL melanoma, in the test on KM20L2 colon, in the test with LXFL 529 NSCLC, in the test with DMS 273 small cell lung, with DMS 114 small cell lung and with HOP-18 NSCLC was greater than 100 µM throughout.
`C/C(=N\NC(N)=S)c1ccc(Oc2ccccc2)cc1`: the TGI came out at 47.2 µM with M19-MEL melanoma; 26.5 µM in the test on KM20L2 colon; 17.5 µM in the test on LXFL 529 NSCLC; 43.7 µM in the test with RXF-631 renal; 20.7 µM with DMS 273 small cell lung; 17.9 µM in the test on DMS 114 small cell lung. This compound also returned a TGI in the test on HOP-18 NSCLC of 80 µM.
In the test on MDA-N, `CCN(CC)CCN1C(=O)c2cccc3cc(N)cc(c23)C1=O` gave a TGI of 23.8 µM.
In turn, `C/C=C/C(C/C=C(\C)CO[Si](C)(C)C(C)(C)C)O[Si](C)(C)C(C)(C)C` (stereo not drawn) showed a TGI in the test with MDA-N greater than 100 µM.
In the case of `Cc1c(Cl)ccc2[s+]snc12`, the TGI is greater than 100 µM with M19-MEL melanoma; greater than 100 µM with KM20L2 colon; 92 µM in the test on LXFL 529 NSCLC; greater than 100 µM with RXF-631 renal; greater than 100 µM in the test with DMS 273 small cell lung; 95.2 µM with HOP-18 NSCLC. Moreover, in the test on XF 498 CNS, the TGI worked out at 55.2 µM.
Turning to `CC(=O)[O-].O=C([CH-]C(=O)c1ccccc1)c1ccccc1.O=C([CH-]C(=O)c1ccccc1)c1ccccc1.[Dy+3]`, in the test on KM20L2 colon, the GI50 is 12.9 µM and the TGI came out at 44.7 µM.
With `CC[C@H]1CNC(=O)CC1CC(=O)OC` (stereo partly drawn), the TGI with RXF-631 renal, with DMS 273 small cell lung and in the test with DMS 114 small cell lung was greater than 100 µM throughout.
On to `COc1cc(Br)c(C2OCCCO2)cc1OCc1ccccc1`, for which the TGI in the test on M19-MEL melanoma, with KM20L2 colon, in the test on LXFL 529 NSCLC, in the test with RXF-631 renal, in the test with DMS 273 small cell lung and with DMS 114 small cell lung was greater than 100 µM each time.
As for `CCn1c(O)c(C(=O)Nc2cccs2)c(=O)n(CC)c1=S`, the TGI in the test with M19-MEL melanoma came to 39 µM; in the test with KM20L2 colon it was 32.9 µM; with LXFL 529 NSCLC, 55.7 µM; in the test with RXF-631 renal, 41.8 µM; with DMS 114 small cell lung, 31.7 µM.
Take `CC1(C)OC2OC(/C=C/[N+](=O)[O-])C3OC(C)(C)OC3C2O1` (stereo not drawn): the TGI is 27.7 µM with M19-MEL melanoma; 39.6 µM in the test on KM20L2 colon; 10.1 µM in the test on LXFL 529 NSCLC; 40.4 µM in the test on DMS 273 small cell lung; 34.5 µM in the test on DMS 114 small cell lung; 40.8 µM in the test with HOP-18 NSCLC.
For the compound `O=C1N(c2ccccc2)C2(O)C(=O)c3ccccc3C2(O)N1c1ccccc1` (stereo not drawn), the TGI in the test on M19-MEL melanoma, in the test with KM20L2 colon, with LXFL 529 NSCLC, in the test on DMS 273 small cell lung, with DMS 114 small cell lung and with HOP-18 NSCLC was greater than 100 µM throughout.
For the compound `CS(=O)c1cc(=O)c2ccccc2s1` (stereo not drawn), the TGI stood at 7.13 µM in the test with MDA-N; 32.8 µM with SN12K1 renal; 11.9 µM with M19-MEL melanoma; 13.4 µM in the test on KM20L2 colon; 2.9 µM in the test with LXFL 529 NSCLC; 19.5 µM in the test on DMS 273 small cell lung. Also, the TGI with P388/ADR leukemia is greater than 22.2 µM; in the test with P388 leukemia, 6.79 µM; with DMS 114 small cell lung, 9.87 µM; in the test on HOP-18 NSCLC it was 19.7 µM; in the test with XF 498 CNS, 7.57 µM.
Take `N#CC1(C2CC(=O)N(c3ccccc3)C2=O)CCCCC1=O` (stereo not drawn): the TGI in the test on M19-MEL melanoma, in the test on LXFL 529 NSCLC, in the test on RXF-631 renal, in the test on DMS 273 small cell lung, in the test with DMS 114 small cell lung and with HOP-18 NSCLC was greater than 100 µM each time. In the test on XF 498 CNS, the TGI is greater than 100 µM.
For the compound `COc1cc(CC2c3cc(OC)c(OC)cc3CCN2C)c(C(=O)O)cc1OC` (stereo not drawn), the TGI with M19-MEL melanoma, with KM20L2 colon, in the test with LXFL 529 NSCLC, in the test on DMS 273 small cell lung, in the test on DMS 114 small cell lung and with HOP-18 NSCLC was greater than 100 µM each time. The compound also had a TGI in the test on XF 498 CNS greater than 100 µM.
As to `CCOc1ccc(/C=C/C(=O)c2sc(NNC(C)=O)nc2C)cc1`, the TGI with M19-MEL melanoma, in the test with KM20L2 colon, in the test with DMS 273 small cell lung, in the test on DMS 114 small cell lung and in the test with HOP-18 NSCLC was greater than 100 µM each time.
As to `O=C1C(=C2C(=O)c3ccccc3[N+]2=O)N([O-])c2ccccc21`, the TGI came to 68.4 µM in the test on M19-MEL melanoma; 43.5 µM in the test on LXFL 529 NSCLC; 89.5 µM with DMS 273 small cell lung; 33.9 µM in the test on DMS 114 small cell lung; 71.5 µM in the test with HOP-18 NSCLC.
